In a melting point compilation (Tetko et al.; mined from patent text by program, amines drawn as free bases though some values may be those of a salt):

SMILES | melting point [°C]
Cn1cc(C(=O)O)c(=O)c2c3cc(F)c(N4CCCC4)cc3ncc21 | 365
c1ccc(CN2CCCC(c3ncc(-c4cnc(-c5ccccc5)nc4)[nH]3)C2)cc1 (centres undefined) | 179
CCOC(=O)c1nc2cc(Br)ccn2n1 | 158 to 160
CC(C)C12COc3cc(Cl)ccc3C1=NN(C(Cl)=Nc1ccc(C(F)(F)F)cc1)C2 (centres undefined) | 148 to 149
NC(=O)c1cccc(-c2ccc(Oc3ccccc3)cc2)n1 | 178 to 180
CCOC(=O)Cc1ccc(Cn2c(-c3ccc(OC4CCCC4)cc3)c(C)c3cc(OCc4ccccc4)ccc32)cc1 | 96 to 98
N#Cc1cc(-c2ccoc2)c2ccc(OCc3cccc(-c4ccc(Cl)cc4)n3)cc2c1 | 174 to 177
Cc1c[nH]c2c(Sc3nc4cc(Cl)ccc4[nH]3)ccc([N+](=O)[O-])c12 | 252 to 253
C=CCN(CC=C)CC1Oc2c(cc(C)c3[nH]c(=O)ccc23)C1CF (centres undefined) | 68 to 71
COc1ccc(Cc2ccc(NC3=NCCN3)cc2)cc1 | 114 to 116
CN(C)c1ccc(NC(=O)c2cc3cc(C(F)(F)F)ccc3n2Cc2cccc(F)c2)cn1 | 192 to 193
COc1ccccc1-c1c(CC(=O)O)n(C)c2ccc(Cl)cc12 | 153 to 154
O=C(OCc1ccccc1)C1Cc2ccsc2CN1Cc1ccccc1 (centres undefined) | 135 to 140
C=C1N(CCC)C(=O)OC12CCNCC2 | 106 to 108
COc1cc2c(cc1OC)C(=O)C(N1CCC(n3c(=O)[nH]c4ccccc43)CC1)CC2 (centres undefined) | 238 to 239
CCCc1nc2cccc(C(=O)OC)c2n1Cc1ccc(-c2ccccc2-c2nnn[nH]2)cc1 | 195 to 196
OCC(O)CNC(c1ccccc1)C(O)c1ccccc1 (centres undefined) | 161 to 163
CCCc1nc2c(N)nc3ccccc3c2n1CCCC(C)N(OC)C(=O)NC1CCCC1 (centres undefined) | 182 to 184
CCOc1nn(-c2ccc(C(F)(F)F)cn2)cc1CCCCOc1cc(CCC(=O)O)n(-c2ccccc2)n1 | 138 to 139
O=C1C(=O)c2ccccc2C2=C1SCC1(CCN(CC(O)c3ccccc3)CC1)O2 (centres undefined) | 193 to 195
NN(C(=O)c1c(F)cccc1Cl)c1ccccc1C(F)(F)F | 147 to 148
CCOC(=O)C(=CC=C(O)C(=O)O)Sc1ccccc1 | 172
Cc1nccc(-c2ccccc2)c1CC[C@H]1C[C@H](O)CC(=O)O1 (relative stereo) | 107 to 108

SMILES | melting point [°C]
C#CCN(C(CCn1c(=O)[nH]c(C)c(C)c1=O)C(=O)NO)S(=O)(=O)c1ccc(Oc2ccccc2)cc1 (centres undefined) | 180 to 181
Oc1ccc(Cl)cc1C(O)(Cc1ccccc1)c1ccccc1 (centres undefined) | 128
Cn1nnnc1-c1ccccc1S(N)(=O)=O | 176 to 179
CCCCOc1c(NC(C)(C)CC)c(=O)c1=O | 56 to 57
COc1ccc(CNc2nc(-c3ccccc3)c(-c3ccc(=O)n(C)n3)nc2C#N)cc1 | 166 to 168
NC(=O)c1cc(COc2ccc([N+](=O)[O-])cc2)ccn1 | 172 to 174
COc1ccc(N2CCN(CC(=O)Nc3nc(-c4ccccc4)cs3)CC2)cc1 | 186 to 189
O=c1c2c(Cc3ccccc3Cl)n[nH]c2c2cccnc2n1-c1cccc(C(F)(F)F)c1 | 276 to 278
C=CCN(C)C1(C#N)CCC2(CC1)OCCO2 | 47 to 50
COc1nc(Cl)ccc1C=O | 62 to 64
CC(C)(C)OC(=O)N1CCC(c2noc3c(O)c(F)ccc23)CC1 | 169 to 170
CCOC(=O)C1=C(C=O)NC(CF)=C(C(=O)OCC)C1c1cccc([N+](=O)[O-])c1 (centres undefined) | 88 to 90
NC(=O)c1nc(-c2cccc(O)c2)nc2c1[nH]c(=O)n2-c1cccc2[nH]ccc12 | > 260
CCCCCC(=O)c1cc2c(cc1/C=C/c1ccc(C(=O)O)cc1)C(C)(C)CCC2(C)C | 118 to 119
Cc1ccc2nc3cc(C)c(=O)cc-3sc2c1 | 177
O=C(O)c1ccc2ccccc2c1OCC(F)(F)F | 172
COc1ccccc1C(Cn1ccnc1)S(=O)c1ccc(C(=O)O)cc1 (centres undefined) | 157 to 159
N#CCCNC(=O)C1=CC(CF)(CF)Oc2ccc([N+](=O)[O-])cc21 | 173 to 174
O=C(CCl)N1CCN(C(=O)CCl)CC1 | 104 to 107
C=CCn1c(C(F)(F)F)nc2cc(-n3c(=O)cc(C(F)(F)F)n(C)c3=O)ccc21 | 185 to 187
COc1ccc2cc(C(=O)CNC(=O)c3cn(C)c4ccccc34)ccc2c1 | 177 to 180
ClCCc1cc(-c2ccc(Cl)cc2)n(-c2ccc(OCc3ccc4ccccc4n3)cc2)n1 | 105
CN1C(=O)SC(Cc2ccc(NC(=O)/C=C/c3cnn(C)c3-c3ccc(F)cc3)cc2)C1=O (centres undefined) | 228 to 229

Results, then the compound that gave them:

melting point [°C] | SMILES
67 to 68 | COC(=O)CCCC=Cc1nn(-c2ccc(F)cc2)c2c1CCC2
158 to 160 | O=C(C(=C1NCCCS1)[N+](=O)[O-])c1ccc([N+](=O)[O-])cc1
42 to 43 | CC(=O)c1cccn1Cc1ccco1
75 to 77 | Cc1cc(OC2CCCC2)ccc1NC(=O)OC(C)(C)C
132 to 134 | C=C(C)CN1CCCC(C(=O)O)=Cc2cc(-c3ccc(OCCOCCCC)cc3)ccc21
142 to 146 | CSc1ccc(-c2c(C(F)(F)F)n(C)[nH]c2=O)cc1
152 | CCOC(=O)C(=O)Nc1ccc(C#N)cc1[N+](=O)[O-]
301 to 303 | O=c1[nH]c2ccccc2cc1-c1nnn[nH]1
156 to 157 | COc1cccc(CSc2ncccc2C(=O)O)c1
195 to 196 | COc1cccc(-n2c(-c3sc(NC(=O)c4ccccc4)nc3-c3ccccc3)nc3ccccc3c2=O)c1
129 | CC(C)(C)c1ccc(-c2cc(C=O)cc3c2C(C)(C)CCC3(C)C)cc1
99 | COc1ccccc1-c1n[nH]c2ccccc12
62 to 65 | CC(C)(C)OCCOc1cc(NC(=O)OC(C)(C)C)c(NC(=O)CC(=O)c2cccc(-n3ccnc3)c2)cc1C#Cc1ccc(F)cc1
253 to 255 | CCC(CC)Cn1c(=O)c(=O)[nH]c2cc(Cl)ccc21
142 to 144 | C#CCc1c(-c2ccccc2)nc(C)n(C)c1=O
200 | CN(C)c1ccc([N+](=O)[O-])c(C(=O)NCC2CCN(C(c3ccccc3)c3ccccc3)CC2)c1
88 to 94 | CC(C#N)c1cccc(C(=O)c2ccccc2)c1 (centres undefined)
150 | COc1ccc(-c2cn(-c3cccc(OCCn4ccnc4)c3)c3ncnc(N)c23)cc1OCc1ccccc1
94.5 | O=C(O)C(Nc1ccc2ccccc2c1)c1c(Cl)cccc1Cl (centres undefined)
153 to 155 | O=C1CCCC(=O)N1c1ccncc1
118 to 121 | Nc1cccc(-c2ccc(Cl)nn2)c1
102 to 104 | CC(=O)Nc1cccc(C2CCNCC2)c1
279 to 280 | O=C(c1c[nH]c2ncc(Br)nc12)C12CC3CC(CC(C3)C1)C2
127 to 128 | CC1C(=O)N2CCCC(C(=O)OC(C)(C)C)N2C1=O (centres undefined)
150 to 153 | Cc1ncc(CN2CCc3ccccc3C2)c(N)n1
65 to 66 | N#CN(Cc1ccccc1)c1ccccn1
195 to 197 | CN1CCN(c2nccc(Oc3ccc(NC(=O)c4cc(F)cc(N5CCOCC5)c4)c4ccccc34)n2)CC1

melting point [°C] | SMILES
124 to 125 | COc1ccc(CN2C(=O)[C@H](CO)[C@H]2S(=O)(=O)C(C)(C)C)c(OC)c1
185 to 187 | Nc1sc(-c2ccccc2)c(CN2CCCCC2)c1C(=O)c1ccc(Cl)cc1
162 to 164 | O=C1N(Cc2ccc3nsnc3c2)c2ccccc2C12COc1cc3c(cc12)CCO3 (centres undefined)
204 to 205 | O=C1Cc2cc(C(=O)c3ccccc3)ccc2N1
170 to 172 | CC(=O)Oc1ccc(C=CC(=O)N(c2ccccc2)c2ccccc2)cc1[N+](=O)[O-]
125 to 127 | CN(C)C(N)=Nc1cc(C#N)ccc1N1CCOCC1
140 | O=c1oc(-c2ccccc2F)nc2c(Cl)ccc(Cl)c12
302 to 304 | Cc1cc2c(cc1C)-n1cnnc1C=C(c1ccc(-n3c(C)nc4cnccc43)cc1)N2
108 to 110 | CCc1cc(NC(=O)N2CCN(c3ccsc3)CC2)c(OC)nc1C
195 to 196 | CCn1cc(C(=O)O)c(=O)c2cc(F)c(-c3ccnc(CNC(=O)OCc4ccccc4)n3)c(F)c21
130 to 131 | CC1CCCN1CCCN1CCN(C2CCN(Cc3ccccc3)CC2)C1=C(C#N)C#N (centres undefined)
129 | O=C(NCC1CCN(CC2(C(=O)O)CCOCC2)CC1)N1C(=O)C2(CCCC2)c2ccc(F)cc21
306 to 309 | N#Cc1cc2ccc(Cl)cc2[nH]c1=O
> 300 | CCN1CCCC(N2C(=O)c3ccc(N)cc3C2=O)C1 (centres undefined)
204 to 206 | O=S1(=O)N=CN(C2CC2)c2cc(Br)c(C(F)(F)F)cc21
138 to 141 | CN1CCCC1=NC(=O)Nc1ccc(Cl)cc1
249 to 250 | CC(C)Cn1c(=O)n(C)c(=O)c2cnc(N)nc21
296 | O=c1c2ccccc2oc2cc(-c3nnn[nH]3)ccc12
104 to 106 | CCc1nc(C2CC2)c[nH]1
52 to 56 | COC(=O)Cc1ccc(OCCNC(=O)C2Cc3ccccc3N2S(=O)(=O)c2ccc(-c3cc(F)ccc3Cl)cc2)cc1 (centres undefined)
303 to 306 | COC(=O)n1c(=O)n(C(C)C)c2nc(=O)[nH]cc21
166 to 168 | CCOc1csc2ccc(C(=O)c3cnoc3C3CC3)c(SC)c12
149 | CC(Oc1cc(-c2nn(C)c(OC(F)F)c2Cl)c(Cl)cc1Cl)C(=O)N(C)C (centres undefined)
109 to 110 | CCCc1c(OCCCCCCc2cccc(CCCCCC(=O)O)c2CCC(=O)O)ccc2c1OCCC2=O
242 to 244 | Cc1ccc(NC(=O)c2ccc(C[N+]3([O-])CC[N+](C)([O-])CC3)cc2)cc1Nc1nccc(-c2cccnc2)n1 (centres undefined)
131 to 132 | O=C1Nc2ccccc2C1CCCCN1CCN(c2ccccn2)CC1 (centres undefined)
